Laboratory results taken from patent US9469645B2, “Compounds and compositions for the treatment of parasitic diseases” (Novartis AG, priority 2009, dated 2016).
Read-outs that look alike come from different tables or passages of the source.

Assays:
3D7 P. falciparum strain = assay: parasite proliferation assay in infected red blood cells (SYBR Green I); type: cell-based, Plasmodium falciparum; conditions: 3D7 strain, read-out: EC50 3D7 strain
In short: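 P. falciparum 3D7 grown in O+ human erythrocytes to 3–8% parasitemia and exposed to compounds. Proliferation read as the increase in parasite DNA. Detection used SYBR Green I in saponin/triton-X/EDTA lysis buffer, with overnight lysis at room temperature.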

W2 strain = assay: parasite proliferation assay in infected red blood cells (SYBR Green I), W2 strain; type: cell-based
Text: Compounds of the invention can be assayed to measure their capacity to inhibit proliferation of parasitemia in infected red blood cells. The proliferation is quantified by the addition of SYBR Green I (INVITROGEN)® dye which has a high affinity for double stranded DNA.

[1] = Plasmodium falciparum, 3D7, Erythrocyte
[2] = Plasmodium falciparum, Erythrocyte

SMILES	EC50 (3D7 P. falciparum strain; [1]) [µM]	EC50 (W2 strain; Erythrocyte) [µM]	EC50 (W2 strain; [2]) [µM]	EC50 (3D7 P. falciparum strain) [µM]	EC50 (W2 strain) [µM]
Cc1ccc(Nc2c(-c3ccc(F)cc3)nc3n2CCN(C(=O)C(N)CC(F)(F)F)C3)cc1 (stereo not shown) [Compound 142]	0.08	0.12			
N#Cc1ccc(C[C@H](N)C(=O)N2CCn3c(nc(-c4ccc(F)cc4)c3Nc3ccc(Cl)c(F)c3)C2)cc1 [Compound 328]	0.34	0.229			
CC1(C)c2nc(-c3ccc(F)cc3)c(NC3CCC(c4ccccc4)CC3)n2CCN1C(=O)CN (stereo not shown) [Compound 661]	0.339		0.52		
Cc1ccc(Nc2c(-c3ccc(F)cc3)nc3n2CCN(C(=O)C2CCCNC2)C3)cc1 (stereo not shown) [Compound 92]				1.3	1.48
Cc1cc(Nc2c(-c3ccc(F)cc3)nc3n2CCN(C(=O)CN)C3(C)C)nn1C [Compound 600]	0.07		0.05		
CCCCC(=O)Nc1ccc(C[C@H](N)C(=O)N2CCn3c(nc(-c4cccc(F)c4)c3Nc3ccc(Cl)c(F)c3)C2)cc1 [Compound 258]	4.92	3.51			
CCCCCN[C@H](C(=O)N1CCn2c(nc(-c3ccc(F)cc3)c2Nc2ccc(C)cc2)C1)c1ccccc1 [Compound 296]	0.28	0.424			
CCCC(=O)OC(C(=O)N1CCn2c(nc(-c3ccc(F)cc3)c2Nc2ccc(C)cc2)C1)c1ccccc1 (stereo not shown) [Compound 269]	0.01	0.006			
Cc1ccc(Nc2c(-c3ccc(F)cc3)nc3n2CCN(C(=O)[C@H](N)[C@H](C)O)C3)cc1 [Compound 285]	0.18	0.177			
CCC(=O)NCc1ccc(C[C@H](N)C(=O)N2CCn3c(nc(-c4ccc(F)cc4)c3Nc3ccc(C)cc3)C2)cc1 [Compound 219]	4.97	3.41			
COC[C@H](N)C(=O)N1CCn2c(nc(-c3ccc(F)cc3)c2Nc2ccc(Cl)c(F)c2)C1 [Compound 301]	0.03	0.047			
CC(C)(C)OC(=O)N[C@@H](Cc1ccc(N)cc1)C(=O)N1CCn2c(nc(-c3cccc(F)c3)c2Nc2ccc(Cl)c(F)c2)C1 [Compound 242]	2.09	0.288			
CCCC(=O)N[C@H](C(=O)N1CCn2c(nc(-c3ccc(F)cc3)c2Nc2ccc(C)cc2)C1)c1ccccc1 [Compound 291]	1.2	0.567			
CCCCC(=O)Nc1ccc(C[C@H](NC(=O)OC(C)(C)C)C(=O)N2CCn3c(nc(-c4cccc(F)c4)c3Nc3ccc(Cl)c(F)c3)C2)cc1 [Compound 252]	3.03	0.631			
CC(C)(N)C(=O)N1CCn2c(nc(-c3c(F)cc(F)cc3F)c2Nc2ccc(F)cc2)C1 [Compound 12]	7.4	2.96			
Cc1ccc(Nc2c(-c3ccc(F)cc3)nc3n2CC(C)CC3)cc1 (stereo not shown) [Compound 753]	0.376		0.592		
NC(C(=O)N1CCn2c(nc(-c3ccc(F)cc3)c2Nc2ccc(F)cc2)C1)C(F)(F)F (stereo not shown) [Compound 50]	0.18	0.187			
N[C@@H](Cc1ccc(F)cc1)C(=O)N1CCn2c(nc(-c3ccc(F)cc3)c2Nc2ccc(Cl)c(F)c2)C1 [Compound 316]	0.02	0.014			
Cc1ccc(Nc2c(-c3ccc(F)cc3)nc3n2CCN(C(=O)[C@@H](C)N)C3)cc1 [Compound 84]	0.05	0.074			
CC(C)(N)C(=O)N1CCn2c(nc(-c3ccc(F)cc3)c2Nc2cccc(OC(F)(F)F)c2)C1 [Compound 640]	3.95		4.51		
O=C(CCc1ccccc1F)N1CCn2c(nc(-c3ccc(F)cc3)c2Nc2ccc(Cl)c(F)c2)C1 [Compound 359]	0.14	0.108			
CN[C@H](C(=O)N1CCn2c(nc(-c3ccc(F)cc3)c2Nc2ccc(C)cc2)C1)C(C)C [Compound 376]	0.06	0.079			
CN(C)CC(=O)N1CCn2c(nc(-c3ccc(F)cc3)c2Nc2ccc(F)cc2)C1 [Compound 22]	1.3	0.691			
Cc1cc(C)cc(Sc2c(-c3ccc(F)cc3)nc3n2CCN(C(=O)CN)C3(C)C)c1 [Compound 717]	0.026		0.016		
NCC(=O)N1CCn2c(nc(-c3cccc(F)c3)c2Nc2ccc(Cl)c(F)c2)C1 [Compound 228]	0.01	0.008			
CC(C)(N)C(=O)N1CCn2c(nc(C3CCCCC3)c2Nc2ccc(F)cc2)C1 [Compound 15]	2.63	2.11			
NCCC(=O)N1CCn2c(nc(-c3ccc(F)cc3)c2Nc2ccc(F)cc2)C1 [Compound 34]	0.07	0.075			
Cc1ccc(Nc2c(-c3ccc(F)cc3)nc3n2CCN(C(=O)[C@H](CC(=O)OCc2ccccc2)NC(=O)OC(C)(C)C)C3)cc1 [Compound 151]	0.82	0.386			
CC(C)(N)C(=O)N1CCn2c(nc(-c3cc(F)cc(F)c3)c2Nc2ccc(F)cc2)C1 [Compound 13]	0.26	0.137			
